Results published in patent US20260335277A1, “CHLOROTONIL DERIVATIVES” (priority 2023, published 2026).
Converted amounts (≈) assume the structure as drawn. Like-named read-outs stand apart in the source and are kept apart here.

Legend:
zebrafish larvae = experiment: Toxicity in zebrafish larvae (MTC / IC50); type: in vivo; conditions: for IC50 in zebrafish larvae: exposed 3 days post fertilization, monitored 48 h; for Selectivity Index S. aureus: zebrafish IC50 / MIC S. aureus Newman; for Selectivity Index P. falc 3D7: zebrafish IC50 vs P. falciparum 3D7
Method: (§1) For toxicity screening, zebrafish larvae were exposed three days post fertilization and monitored for 48 h until five days post fertilization. All malformations and pathophysiological phenotypes were noted and used to determine the inhibitory concentration (IC50) of the respective derivative against zebrafish larvae. The selectivity index (SI) was then calculated using the IC50 and the MIC of either S. aureus or P. falciparum 3D7.

S. aureus Newman = experiment: MIC testing (broth microdilution, EUCAST); type: cell-based
Method: (§2) Minimal inhibitory concentration (MIC) of the compounds in the present invention was determined using broth microdilution performed according to EUCAST guidelines (ISO20776-1:2019). S. aureus ATCC29213 and E. faecalis ATCC29212 served as quality control strains.

E. faecalis ATCC-29212 = experiment: MIC testing (broth microdilution, EUCAST); type: cell-based; conditions: for MIC E. faecalis: E. faecalis ATCC-29212
Method: as §2

[1] = test system: S. aureus N315 (methicillin-resistant, MRSA); experiment: MIC testing (broth microdilution, EUCAST); type: cell-based
Method: as §2

S. epidermidis DSM-28765 = experiment: MIC testing (broth microdilution, EUCAST); type: cell-based; conditions: for MIC S. epiderm.: S. epidermidis DSM-28765
Method: as §2

[2] = test system: E. faecium DSM-17050 (vancomycin-resistant, VRE); experiment: MIC testing (broth microdilution, EUCAST); type: cell-based
Method: as §2

E. faecium DSM-20477 = experiment: MIC testing (broth microdilution, EUCAST); type: cell-based; conditions: for MIC E. faecium: E. faecium DSM-20477
Method: as §2

[3] = test system: clinical isolates of S. aureus; experiment: MIC 50/90 profiling in multidrug-resistant clinical isolates; type: cell-based; conditions: Staphylococcus aureus; S. aureus clinical isolates (n = 100)
Method: as §2
(§3) Activity of dehalogenil against multidrug-resistant clinical isolates of S. aureus (n=100) and Enterococcus spp. […] Compared to the standard of care (linezolid, daptomycin and tigecyclin), dehalogenil MIC90 was lowered in both pathogens by 20-40-fold with unimodal distribution indicating no pre-existing resistances.

E. faecium = experiment: as above; type: cell-based; conditions: Enterococcus faecium; for MIC: read-out: MIC range; for MIC50 / MIC90: E. faecium (n = 98)
Method: as §2, §3

[4] = Toxicity in zebrafish larvae (MTC / IC50); type: in vivo; conditions: zebrafish, zebrafish larvae
Method: as §1

[5] = test system: mature gametocytes (stages IV and V); experiment: Activity against mature gametocytes (stage IV-V), bioluminescence assay; type: cell-based, P. falciparum
Method: Activity against gametocytes was determined using an in vitro bioluminescence assay as described previously (doi.org/10.1371/journal.pone.0035019).

[6] = cited from earlier work
S. aureus USA300LAC = experiment: S. aureus blood infection (sepsis) model; type: in vivo, mouse (CD-1); conditions: 60 mg/kg
Method: Dehalogenil was further tested in a Staphylococcus blood infection (sepsis) model, alongside linezolid as reference compound. Mice were infected using S. aureus USA300LAC (10^8 CFU/animal) and subsequently treated with a daily total of 5, 10 or 25 mg/kg SC dehalogenil, split into two doses (8 h interval, BID regimen) until 3 days post infection.
Mice were infected intravenously using S. aureus USA300LAC (10^8 CFU/mice). Compounds were administered twice daily starting day 0 until day 3, with the daily total dose indicated. Curves were compared via Mantel-Cox test (Prism), with ***: p<0.001 and **: p<0.01.

[7] = zebrafish IC50 / MIC S. aureus Newman, read-out: Selectivity Index S. aureus
[8] = zebrafish IC50 vs P. falciparum 3D7, read-out: Selectivity Index P. falc 3D7

| Compound | IC50 in zebrafish larvae (zebrafish larvae) | MIC S. aureus (S. aureus Newman) | MIC E. faecalis (E. faecalis ATCC-29212) | MIC MRSA [1] | MIC S. epiderm. (S. epidermidis DSM-28765) | MIC VRE [2] | MIC E. faecium (E. faecium DSM-20477) | MIC50 [3] | MIC90 [3] | MIC (E. faecium) | MIC50 (E. faecium) | MIC90 (E. faecium) | further results |
| --- | --- | --- | --- | --- | --- | --- | --- | --- | --- | --- | --- | --- | --- |
| CC1C=CC=CC(C)C2C=CC3CC4(C)OC4C(C)C3C2C(=O)CC(=O)C(C)C(=O)O1 (centres unmarked) [Dehalogenil-Epo2] | 1220 nM | 0.4 µg/mL (≈ 0.938 µM) | 1.6 µg/mL (≈ 3.75 µM) | 0.2 µg/mL (≈ 0.469 µM) | 0.8 µg/mL (≈ 1.88 µM) | 0.4 µg/mL (≈ 0.938 µM) | 0.8 µg/mL (≈ 1.88 µM) | – | – | – | – | – | Selectivity Index S. aureus (zebrafish larvae): 1.30; Selectivity Index P. falc 3D7 (zebrafish larvae): 6.2 |
| CCCCCCCCCC(=O)N[C@@H](Cc1c[nH]c2ccccc12)C(=O)N[C@H](CC(N)=O)C(=O)N[C@@H](CC(=O)O)C(=O)N[C@@H]1C(=O)NCC(=O)N[C@@H](CCCN)C(=O)N[C@@H](CC(=O)O)C(=O)N[C@H](C)C(=O)N[C@@H](CC(=O)O)C(=O)NCC(=O)N[C@H](CO)C(=O)N[C@@H]([C@H](C)CC(=O)O)C(=O)N[C@@H](CC(=O)c2ccccc2N)C(=O)O[C@@H]1C [daptomycin] | – | – | – | – | – | – | – | 0.5 µg/mL (≈ 0.309 µM) | 4 µg/mL (≈ 2.47 µM) | 0.5 to 4 µg/mL (≈ 0.309 to 2.47 µM) | 2 µg/mL (≈ 1.23 µM) | 4 µg/mL (≈ 2.47 µM) | – |
| CC1=CC(C)C2C(C=CC3C(C)C=CC=CC(C)OC(=O)CC(=O)CC(=O)C32)C1 (centres unmarked) [dehalogenil-2′DM, 2′Demethyldehalogenil] | 27030 nM | – | – | – | – | – | – | – | – | – | – | – | selectivity ratio [4, 7]: 13.4; selectivity ratio [4, 8]: 66.2; IC50 ([5]; Plasmodium falciparum): 499 ± 86.8 nM; MIC (S. aureus Newman; Staphylococcus aureus, NEWMAN): 0.8 µg/mL (≈ 2.02 µM); MIC (E. faecalis ATCC-29212; Enterococcus faecalis, ATCC29212, E. faecalis ATCC-29212): 1.6 µg/mL (≈ 4.04 µM); MIC ([1]; Staphylococcus aureus, MRSA): 0.8 µg/mL (≈ 2.02 µM); MIC (S. epidermidis DSM-28765; Staphylococcus epidermidis, DSM28765, S. epidermidis DSM-28765, read-out: MIC S. epiderm.): 3.2 µg/mL (≈ 8.07 µM); MIC ([2]; Enterococcus faecium): 0.8 µg/mL (≈ 2.02 µM); MIC (E. faecium DSM-20477; Enterococcus faecium, DSM20477, E. faecium DSM-20477): 0.8 µg/mL (≈ 2.02 µM) |
| CC1=CC(C)C2C(C=CC3C(C)C=CC=CC(C)OC(=O)C(C)C(=O)CC(=O)C32)C1 (stereo not drawn) [dehalogenil-2′Epi] | 38460 nM | 0.2 µg/mL (≈ 0.487 µM) | 0.2 µg/mL (≈ 0.487 µM) | 0.1 µg/mL (≈ 0.244 µM) | 0.4 µg/mL (≈ 0.974 µM) | 0.1 µg/mL (≈ 0.244 µM) | 0.05 µg/mL (≈ 0.122 µM) | – | – | – | – | – | selectivity ratio [4, 7]: 78.9; selectivity ratio [4, 8]: 1370; IC50 [5]: 25.2 ± 1.63 nM |
| CC[C@H](C)[C@H](NC(=O)[C@H]([C@@H](C)CC)N(C)C(C)=O)C(=O)N[C@H](C(=O)N[C@@H](CC(C)C)C(=O)[C@@]1(C)CO1)[C@@H](C)O [epoxomicin] | – | – | – | – | – | – | – | – | – | – | – | – | toxic effects in vivo [6]: shows toxic effects in vivo |
| CC(=O)NC[C@H]1CN(c2ccc(N3CCOCC3)c(F)c2)C(=O)O1 [linezolid] | – | – | – | – | – | – | – | 4 µg/mL (≈ 11.9 µM) | 8 µg/mL (≈ 23.7 µM) | 0.5 to 64 µg/mL (≈ 1.48 to 190 µM) | 4 µg/mL (≈ 11.9 µM) | 4 µg/mL (≈ 11.9 µM) | survival (S. aureus USA300LAC): survival of all animals |
| CC1=C[C@@H](C)[C@H]2[C@@H]3C(O)=C(SS)C(=O)[C@H](C)C(=O)O[C@@H](C)/C=C/C=C\[C@@H](C)[C@@H]3C=C[C@@H]2C1 [thiotonil] | – | 0.4 µg/mL (≈ 0.843 µM) | 0.2 µg/mL (≈ 0.421 µM) | 0.4 µg/mL (≈ 0.843 µM) | 0.4 µg/mL (≈ 0.843 µM) | 0.025 µg/mL (≈ 0.0527 µM) | 0.025 µg/mL (≈ 0.0527 µM) | – | – | – | – | – | Selectivity Index S. aureus (zebrafish larvae): >62.5; Selectivity Index P. falc 3D7 (zebrafish larvae): >892.9; IC50 [5]: 67.4 ± 8.6 nM |
| CN(C)c1cc(NC(=O)CNC(C)(C)C)c(O)c2c1C[C@H]1C[C@H]3[C@H](N(C)C)C(=O)C(C(N)=O)=C(O)[C@@]3(O)C(=O)C1=C2O [tigecyclin] | – | – | – | – | – | – | – | 4 µg/mL (≈ 6.83 µM) | 8 µg/mL (≈ 13.7 µM) | 0.5 to 16 µg/mL (≈ 0.854 to 27.3 µM) | 2 µg/mL (≈ 3.41 µM) | 2 µg/mL (≈ 3.41 µM) | MIC [3]: 1 to 16 µg/mL (≈ 1.71 to 27.3 µM) |
